Measured values published in patent publication US11795177B2, “Substituted quinoline analogs as aldehyde dehydrogenase 1A1 (ALDH1A1) inhibitors” (THE UNITED STATES OF AMERICA, AS REPRESENTED BY THE …, priority 2017, dated 2023).
Where a name gives a salt, the structure may show the parent alone.

Assays:
[1] = test system: MIA PaCa-2 cells; test: MIA PaCa2 cell-based assay (1,536-well high-content imaging ALDEFLUOR assay); design: species or system human; conditions: Homo sapiens, 0.5 h, ALDEFLUOR BAAA substrate 500 nM, 30 minutes
Summary of the method: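 MIA PaCa-2 cells (1,000/well), plated overnight, given BAAA substrate (500 nM) plus Hoechst 33342 (0.5 nM), then compound (16-point, 1.4 nM–47.8 μM final; 0.5% DMSO). After 30 min at 37° C, ALDH activity imaged by high-content microscopy as BAA-retaining (FITC) cells versus Hoechst-stained nuclei.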

[2] = target: T1, ALDH1A1 enzyme (Homo sapiens, UniProt P00352); test: ALDH1A1 enzymatic assay (in vitro); format: biochemical; conditions: ALDH1A1 enzyme 20 nM, NAD+ 1 mM, propionaldehyde 80 μM; read-out: ALDH1A1 IC50
T1 sequence (P00352 1-501): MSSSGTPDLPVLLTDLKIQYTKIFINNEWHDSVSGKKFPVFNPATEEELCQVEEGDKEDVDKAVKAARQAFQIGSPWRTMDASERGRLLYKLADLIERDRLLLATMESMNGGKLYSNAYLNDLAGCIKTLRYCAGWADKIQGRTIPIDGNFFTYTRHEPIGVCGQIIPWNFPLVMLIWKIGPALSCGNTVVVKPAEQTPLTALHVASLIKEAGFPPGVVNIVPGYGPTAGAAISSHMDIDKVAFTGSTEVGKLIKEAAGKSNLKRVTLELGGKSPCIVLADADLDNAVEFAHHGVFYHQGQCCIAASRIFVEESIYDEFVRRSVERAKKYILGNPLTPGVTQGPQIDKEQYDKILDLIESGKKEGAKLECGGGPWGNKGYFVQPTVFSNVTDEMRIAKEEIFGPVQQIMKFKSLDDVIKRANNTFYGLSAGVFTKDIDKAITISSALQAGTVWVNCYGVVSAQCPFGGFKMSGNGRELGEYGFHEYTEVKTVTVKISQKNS
Summary of the method: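 ALDH1A1 (20 nM final) in 100 mM HEPES pH 7.5, 0.01% Tween 20 was preincubated 15 min at RT with compound (968 pM–57.2 μM final), then started with 1 mM NAD+ and 80 μM propionaldehyde. NADH fluorescence (ex 340/em 450 nm) followed kinetically for 10 min; change normalized to no-inhibitor and no-enzyme controls for percent inhibition and curve fitting.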

IC50 [1] | IC50 [2] | Compound
> 10000 nM | < 500 nM | COc1ccc2ncc(C(=O)N3CCN(C(=O)C4CC4)CC3)c(N3CCC(OC)CC3)c2c1 [Example 3, (4-(cyclopropanecarbonyl)piperazin-1-yl)(6-methoxy-4-(4-methoxypiperidin-1-yl)quinolin-3-yl)methanone, TFA]
> 10000 nM | 1000 to 10000 nM | COc1ccc2ncc(C(=O)N3CCN(C(=O)C4CC4)CC3)c(N3CCC(C(F)(F)F)CC3)c2c1 [Example 28, (4-(cyclopropanecarbonyl)piperazin-1-yl)(6-methoxy-4-(4-(trifluoromethyl)piperidin-1-yl)quinolin-3-yl)methanone]
500 to 1000 nM | < 500 nM | N#CC1(c2ccc(-c3c(C(=O)N[C@H]4C[C@H](O)C4)cnc4ccc(F)cc34)cc2)CC1 [Cpd. 336, 4-(4-(1-cyanocyclopropyl)phenyl)-6-fluoro-N-((1R,3R)-3-hydroxycyclobutyl)quinoline-3-carboxamide]
1000 to 10000 nM | < 500 nM | N#CC1(c2ccc(Cl)cc2)CCN(c2c(C(=O)N3CCN(C(=O)C4CC4)CC3)cnc3ccc(F)cc23)CC1 [Example 267, 4-(4-chlorophenyl)-1-(3-(4-(cyclopropanecarbonyl)piperazine-1-carbonyl)-6-fluoroquinolin-4-yl)piperidine-4-carbonitrile]
1000 to 10000 nM | < 500 nM | CCNC(=O)N1CCN(C(=O)c2cnc3cc(OC)ccc3c2N2CCC(C)(C#N)CC2)CC1 [Example 107, 4-(4-(4-cyano-4-methylpiperidin-1-yl)-7-methoxyquinoline-3-carbonyl)-N-ethylpiperazine-1-carboxamide]
1000 to 10000 nM | < 500 nM | CCNC(=O)N1CCN(C(=O)c2cnc3cc(F)c(F)cc3c2N2CCC3(CC2)OCCO3)CC1 [Example 142, 4-(6,7-difluoro-4-(1,4-dioxa-8-azaspiro[4.5]decan-8-yl)quinoline-3-carbonyl)-N-ethylpiperazine-1-carboxamide]
1000 to 10000 nM | < 500 nM | COc1cc2ncc(C(=O)N3CCN(S(C)(=O)=O)CC3)c(N3CCC(C)(C#N)CC3)c2cc1OC [Example 113, 1-(6,7-dimethoxy-3-(4-(methylsulfonyl)piperazine-1-carbonyl)quinolin-4-yl)-4-methylpiperidine-4-carbonitrile]
1000 to 10000 nM | < 500 nM | COc1ccc2ncc(C(=O)N3CCN(C(=O)C4CC4)CC3)c(N3CCC4(CC3)CC4)c2c1 [Example 46, (4-(cyclopropanecarbonyl)piperazin-1-yl)(6-methoxy-4-(6-azaspiro[2.5]octan-6-yl)quinolin-3-yl)methanone]
500 to 1000 nM | < 500 nM | CS(=O)(=O)N1CCN(C(=O)c2cnc3ccc(F)cc3c2N2CCC3(CCCC3=O)CC2)CC1 [Example 251, 8-(6-fluoro-3-(4-(methylsulfonyl)piperazine-1-carbonyl)quinolin-4-yl)-8-azaspiro[4.5]decan-1-one]
> 10000 nM | 1000 to 10000 nM | COc1ccc2ncc(C(=O)N3CCN(C(C)C)CC3)c(N3CCC4(CC3)OCCO4)c2c1 [Example 8, (4-isopropylpiperazin-1-yl)(6-methoxy-4-(1,4-dioxa-8-azaspiro[4.5]decan-8-yl)quinolin-3-yl)methanone, TFA]
1000 to 10000 nM | < 500 nM | COc1ccc2ncc(C(=O)N3CCC(C(F)(F)F)CC3)c(N3CCC4(CC3)OCCO4)c2c1 [Example 12, (6-methoxy-4-(1,4-dioxa-8-azaspiro[4.5]decan-8-yl)quinolin-3-yl)(4-(trifluoromethyl)piperidin-1-yl)methanone, TFA]
1000 to 10000 nM | 1000 to 10000 nM | O=C1CC2(CCN(c3c(C(=O)N4CCN(C(=O)C5CC5)CC4)cnc4ccc(F)cc34)CC2)c2ccccc21 [Example 203, 1′-(3-(4-(cyclopropanecarbonyl)piperazine-1-carbonyl)-6-fluoroquinolin-4-yl)spiro[indene-1,4′-piperidin]-3(2H)-one]
